Laboratory results from patent US8466193B2, “Selective inhibitors of histone deacetylase” (Pharmacyclics, Inc., priority 2008, dated 2013).

How the values were obtained:
[1] = system: Jurkat cells; assay: Cell proliferation assay, growth inhibition by Alamar Blue; type: cell-based; settings: Homo sapiens, 72 h, Jurkat cells treated with compound for 3 days
Procedure: Cell lines were obtained from DSMZ (Braunschweig, Germany) or ATCC (Manassas, Va.). Cells were grown in RPMI 1640 with 10% fetal bovine serum in a 5% CO2/air incubator at 37° C. Thapsigargin and BAPTA-AM were from Calbiochem (San Diego, Calif.). 3-((dimethylamino)methyl)-N-(2-(4-(hydroxycarbamoyl)phenoxy)ethyl)benzofuran-2-carboxamide is a broad-spectrum HDAC inhibitor which was synthesized as previously described. Other analogs with varying degrees of specificity towards the HDAC isoforms were synthesized as described herein.
Tumor cell lines and human umbilical vein endothelial cells (HUVEC) were cultured for at least two doubling times, and growth was monitored at the end of compound exposure using an Alamar Blue™ (Biosource, Camarillo, Calif.) fluorometric cell proliferation assay as recommended by the manufacturer. Compounds were assayed in triplicate wells in 96-well plates. The concentration required to inhibit cell growth by 50% (GI50) and 95% confidence intervals were estimated from nonlinear regression using a 4-parameter logistic equation. The effect of HDAC8 selective inhibitor compounds on cell proliferation in Jurkat cells was measured. Apoptosis was measured by Annexin-V flow cytommetry. Growth inhibition was measured by Alamar Blue assay. Cells were treated with compound for 3 days.

[2] = Pharmacokinetic analysis in male rats, oral gavage; type: in vivo; settings: CD IGS (Sprague-Dawley derived), rat, plasma, orally at 3 mg/kg, compounds administered in combination
Procedure: This study, performed in male rats with test compounds (Compound 303 and Compound 316), was designed to provide preliminary information on their pharmacokinetics. The test compounds were administered in combination by oral gavage.
The specifications for rats used on this study are as follows: • Strain: CD® IGS rats (Sprague-Dawley derived) • Source: Charles River Laboratories • Surgical modification for oral dosing: One portal vein cannula and one jugular vein cannula • Body weight range at dosing 350 to 375 g
The rats were acclimatized to laboratory conditions for at least 24 hours before dosing. The evening before dosing, food was withheld from the rats and was returned immediately following the 3-hour blood collection time point. Water was provided ad libitum. The rats were housed individually in translucent polycarbonate cages.
Test compounds were prepared as 3.0 mg/ml solutions (1% MC/0.4% Cr EL in WFI).
Rats were administered a single dose of test compound in combination by oral gavage. Dose volumes were adjusted based on body weight data collected immediately prior to dosing.
The dose volume was 1 ml/kg and the nominal dosage was 3 mg/kg.
Blood samples were collected at 5 minutes, 20 minutes, 1 hour, 3 hours, 6 hours, 9 hours, and 24 hours post-dosing from orally dosed rats. The samples were collected into plasma separator Microtainer tubes with anticoagulant (lithium heparin). Plasma samples were prepared by centrifugation (5 min at 5000×g), and at least 100 μL were transferred to storage tubes and frozen on dry ice. Samples were maintained at approximately −75 C until prepared for analysis.
Plasma samples were thawed and 75 uL aliquots were transferred to centrifuge tubes to which 10 μL aliquots of internal standard solution (0.5 μg/mL) were added. The samples were not diluted with blank plasma prior to further processing. Soluble proteins were precipitated by the addition of 300 μL of methanol, followed by centrifugation (20 min at 16,000×g). The samples were evaporated to dryness and reconstituted in 100 μL of water containing 0.2% formic acid and 10% methanol. All samples were loaded onto an autosampler maintained at 6° C. and evaluated for concentrations of test compound using LC-MS/MS. lasma concentration data were evaluated using the computer program WinNonlin (Professional Edition, Pharsight Corporation, version 5.01). […]
Pan HDAC inhibitor 3-((dimethylamino)methyl)-N-(2-(4-(hydroxycarbamoyl)phenoxy)ethyl)benzofuran-2-carboxamide was added to the cassette to serve as a standard since the pharmacokinetics of this compound have been determined previously in rats. The UC's determined for rats administered Compound 303 and Compound 316 orally at 3 mg/kg were 1.42, and 5.36 μg·h/mL, respectively. […]

[3] = biological target: HDAC2 (Homo sapiens, UniProt Q92769); assay: Histone deacetylase activity, continuous trypsin-coupled assay; type: biochemical; settings: 15 minutes preincubation; substrate acetyl-Gly-Ala-(N-acetyl-Lys)-AMC
HDAC2, sequence (Q92769 whole entry, species assumed): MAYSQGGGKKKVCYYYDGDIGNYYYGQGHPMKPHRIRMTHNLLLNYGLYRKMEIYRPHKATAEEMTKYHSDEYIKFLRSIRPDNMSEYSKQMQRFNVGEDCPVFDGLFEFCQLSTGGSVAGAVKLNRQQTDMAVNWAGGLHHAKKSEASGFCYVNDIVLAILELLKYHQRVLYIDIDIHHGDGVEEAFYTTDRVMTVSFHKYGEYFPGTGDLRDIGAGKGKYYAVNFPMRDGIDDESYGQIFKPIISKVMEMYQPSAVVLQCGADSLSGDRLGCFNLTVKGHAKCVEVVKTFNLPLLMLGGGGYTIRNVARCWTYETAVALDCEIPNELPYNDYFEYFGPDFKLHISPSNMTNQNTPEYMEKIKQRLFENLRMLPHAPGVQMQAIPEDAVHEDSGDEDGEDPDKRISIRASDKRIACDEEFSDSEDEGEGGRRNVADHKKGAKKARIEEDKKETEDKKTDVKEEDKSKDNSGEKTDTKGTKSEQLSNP
Procedure: (§1) HDAC activity was measured using a continuous trypsin-coupled assay that has been described in detail previously (US 20070281934; Schultz et. al., Biochemistry, 43 (34), 11083-11091, 2004; Kim et al. (2006), Methods Mol. Biol., 325:273-283). For inhibitor characterization, measurements were performed in a reaction volume of 100 μL using 96-well assay plates in a fluorescence plate reader. For each isozyme, the HDAC protein in reaction buffer (50 mM HEPES, 100 mM KCl, 0.001% Tween-20, 5% DMSO, pH 7.4, supplemented with bovine serum albumin at concentrations of 0-0.05%, was mixed with inhibitor at various concentrations and allowed to incubate for 15 minutes. Trypsin was added to a final concentration of 50 nM, and acetyl-Gly-Ala-(N-acetyl-Lys)-AMC was added to a final concentration of 25-100 μM to initiate the reaction. After a 30 minute lag time, the fluorescence was measured over a 30 minute time frame using an excitation wavelength of 355 nm and a detection wavelength of 460 nm. The increase in fluorescence with time was used as the measure of the reaction rate. Inhibition constants Ki(app) were obtained using the program BatchKi (Biokin, Pullman, Wash.).

[4] = biological target: HDAC3 (Homo sapiens, UniProt O15379); assay: as above; type: biochemical; settings: 15 minutes preincubation; substrate acetyl-Gly-Ala-(N-acetyl-Lys)-AMC
HDAC3, sequence (O15379 whole entry, species assumed): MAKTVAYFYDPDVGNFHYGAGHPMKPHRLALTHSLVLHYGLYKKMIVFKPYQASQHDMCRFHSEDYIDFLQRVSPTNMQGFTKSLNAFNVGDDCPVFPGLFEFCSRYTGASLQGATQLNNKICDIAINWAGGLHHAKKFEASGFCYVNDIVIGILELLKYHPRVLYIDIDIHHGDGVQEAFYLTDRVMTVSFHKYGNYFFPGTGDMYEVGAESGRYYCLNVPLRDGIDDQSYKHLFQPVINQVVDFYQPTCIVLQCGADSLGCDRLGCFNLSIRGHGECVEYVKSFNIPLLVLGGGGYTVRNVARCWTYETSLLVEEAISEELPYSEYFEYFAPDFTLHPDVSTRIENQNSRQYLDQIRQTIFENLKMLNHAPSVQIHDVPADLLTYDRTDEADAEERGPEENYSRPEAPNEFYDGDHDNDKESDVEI
HDAC3, sequence (Q9Y618 395-489 partner limits assumed, species assumed): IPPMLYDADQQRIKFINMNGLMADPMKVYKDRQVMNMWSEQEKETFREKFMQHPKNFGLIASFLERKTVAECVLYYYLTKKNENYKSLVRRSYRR
Procedure: as §1

[5] = biological target: HDAC1 (Homo sapiens, UniProt Q13547); assay: as above; type: biochemical; settings: 15 minutes preincubation; substrate acetyl-Gly-Ala-(N-acetyl-Lys)-AMC
HDAC1, sequence (Q13547 whole entry, species assumed): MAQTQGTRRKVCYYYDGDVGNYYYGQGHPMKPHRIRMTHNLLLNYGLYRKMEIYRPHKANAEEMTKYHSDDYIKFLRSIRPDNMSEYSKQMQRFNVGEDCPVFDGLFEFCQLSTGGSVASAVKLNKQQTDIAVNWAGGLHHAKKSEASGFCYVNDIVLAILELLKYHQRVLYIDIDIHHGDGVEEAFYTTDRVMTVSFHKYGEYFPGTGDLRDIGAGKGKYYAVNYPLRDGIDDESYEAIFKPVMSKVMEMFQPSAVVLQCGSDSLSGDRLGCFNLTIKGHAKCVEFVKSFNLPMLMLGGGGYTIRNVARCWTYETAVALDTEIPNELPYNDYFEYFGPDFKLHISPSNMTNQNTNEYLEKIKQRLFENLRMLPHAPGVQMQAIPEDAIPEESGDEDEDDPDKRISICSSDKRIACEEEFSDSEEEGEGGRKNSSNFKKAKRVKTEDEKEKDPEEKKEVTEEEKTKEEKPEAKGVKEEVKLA
Procedure: as §1

[6] = biological target: T1, HDAC6 (Homo sapiens, UniProt Q9UBN7); assay: as above; type: biochemical; settings: 15 minutes preincubation; substrate acetyl-Gly-Ala-(N-acetyl-Lys)-AMC
T1 sequence (Q9UBN7 1-1215): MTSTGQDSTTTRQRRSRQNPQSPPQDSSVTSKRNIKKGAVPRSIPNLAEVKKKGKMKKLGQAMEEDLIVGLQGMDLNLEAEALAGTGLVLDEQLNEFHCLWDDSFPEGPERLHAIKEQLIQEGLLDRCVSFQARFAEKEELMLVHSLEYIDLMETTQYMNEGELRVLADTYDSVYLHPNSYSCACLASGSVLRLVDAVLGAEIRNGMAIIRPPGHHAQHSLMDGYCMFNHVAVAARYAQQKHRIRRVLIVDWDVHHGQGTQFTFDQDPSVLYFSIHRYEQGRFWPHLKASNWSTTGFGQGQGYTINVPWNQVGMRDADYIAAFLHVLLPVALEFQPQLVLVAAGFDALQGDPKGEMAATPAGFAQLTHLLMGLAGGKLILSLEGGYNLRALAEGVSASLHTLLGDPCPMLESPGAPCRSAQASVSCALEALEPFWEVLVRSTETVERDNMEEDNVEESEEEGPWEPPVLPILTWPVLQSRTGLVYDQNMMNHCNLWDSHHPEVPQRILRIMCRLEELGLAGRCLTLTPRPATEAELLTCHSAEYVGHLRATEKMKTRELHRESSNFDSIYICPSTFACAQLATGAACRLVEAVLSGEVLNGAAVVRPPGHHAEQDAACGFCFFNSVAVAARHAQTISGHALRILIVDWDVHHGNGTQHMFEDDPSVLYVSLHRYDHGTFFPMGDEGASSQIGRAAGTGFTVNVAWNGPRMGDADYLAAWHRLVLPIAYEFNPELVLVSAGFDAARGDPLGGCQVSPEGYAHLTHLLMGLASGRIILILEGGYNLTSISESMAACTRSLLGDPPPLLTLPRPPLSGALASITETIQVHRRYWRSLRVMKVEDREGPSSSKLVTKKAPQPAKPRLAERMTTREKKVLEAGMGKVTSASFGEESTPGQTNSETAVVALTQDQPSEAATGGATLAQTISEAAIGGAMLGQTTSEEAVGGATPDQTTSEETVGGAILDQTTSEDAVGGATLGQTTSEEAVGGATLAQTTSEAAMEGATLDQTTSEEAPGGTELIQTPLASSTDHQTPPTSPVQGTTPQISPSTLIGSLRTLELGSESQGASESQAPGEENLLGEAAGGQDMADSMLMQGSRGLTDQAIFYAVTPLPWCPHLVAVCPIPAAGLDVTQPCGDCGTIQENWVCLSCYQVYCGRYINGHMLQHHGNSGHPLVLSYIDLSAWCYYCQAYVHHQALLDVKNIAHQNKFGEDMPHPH
Procedure: as §1

[7] = biological target: T2, HDAC8 (Homo sapiens, UniProt Q9BY41); assay: as above; type: biochemical; settings: 15 minutes preincubation; substrate acetyl-Gly-Ala-(N-acetyl-Lys)-AMC
T2 sequence (Q9BY41 1-377): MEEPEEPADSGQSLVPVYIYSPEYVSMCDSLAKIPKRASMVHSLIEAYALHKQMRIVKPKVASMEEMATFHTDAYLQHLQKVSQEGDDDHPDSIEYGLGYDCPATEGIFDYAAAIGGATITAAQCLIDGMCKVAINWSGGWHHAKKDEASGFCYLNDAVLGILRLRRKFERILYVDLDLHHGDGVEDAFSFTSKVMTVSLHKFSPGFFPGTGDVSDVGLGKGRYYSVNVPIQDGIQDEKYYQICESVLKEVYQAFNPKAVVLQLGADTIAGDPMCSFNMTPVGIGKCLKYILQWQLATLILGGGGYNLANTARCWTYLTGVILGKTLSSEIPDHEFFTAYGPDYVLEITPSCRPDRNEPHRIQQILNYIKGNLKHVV
Procedure: as §1

[8] = biological target: T3, HDAC10 (Homo sapiens, UniProt Q969S8); assay: as above; type: biochemical; settings: 15 minutes preincubation; substrate acetyl-Gly-Ala-(N-acetyl-Lys)-AMC
T3 sequence (Q969S8 1-669): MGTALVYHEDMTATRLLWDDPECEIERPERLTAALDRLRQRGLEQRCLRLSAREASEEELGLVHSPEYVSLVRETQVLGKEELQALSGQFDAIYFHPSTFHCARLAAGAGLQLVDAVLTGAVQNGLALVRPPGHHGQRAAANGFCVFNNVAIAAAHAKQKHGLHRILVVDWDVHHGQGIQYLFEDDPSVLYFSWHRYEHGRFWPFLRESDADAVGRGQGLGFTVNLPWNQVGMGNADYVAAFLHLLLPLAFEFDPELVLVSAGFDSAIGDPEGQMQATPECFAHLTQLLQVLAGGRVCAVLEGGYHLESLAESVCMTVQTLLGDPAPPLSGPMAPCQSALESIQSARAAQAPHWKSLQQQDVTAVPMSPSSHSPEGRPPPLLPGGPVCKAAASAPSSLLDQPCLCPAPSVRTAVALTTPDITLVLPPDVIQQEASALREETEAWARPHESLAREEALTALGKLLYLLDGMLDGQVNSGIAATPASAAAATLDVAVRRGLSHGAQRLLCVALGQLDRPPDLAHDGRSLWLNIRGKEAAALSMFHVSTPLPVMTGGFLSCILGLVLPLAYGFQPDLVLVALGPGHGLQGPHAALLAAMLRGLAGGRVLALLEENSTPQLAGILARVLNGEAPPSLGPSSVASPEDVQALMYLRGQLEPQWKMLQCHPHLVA
Procedure: as §1

Compound `O=C(NO)c1ccc2ccn(CCCc3ccccc3)c2c1` [Compound 303, N-hydroxy-1-(3-phenyl-propyl)-1H-indole-6-carboxamide] has a GI50 [1] of 3.5 µM, an AUC [2] of 1420 ng·h/mL and a Cmax [2] of 310 ng/mL.

With `CN(C)Cc1cccc(OCCn2ccc3ccc(C(=O)NO)cc32)c1` [Compound 324, N-hydroxy-1-(2-(3-(dimethylaminomethyl)phenoxy)ethyl)-1H-indole-6-carboxamide] the GI50 [1] was 7.4 µM, the IC50 [3] was greater than 10 µM and the IC50 [4] was greater than 10 µM. It also gave an IC50 [5] greater than 10 µM, an IC50 [6] of 1 to 10 µM and an IC50 [7] of less than 1 µM. For the same compound, the IC50 [8] was greater than 10 µM.

In the case of `CN(C)Cc1ccc(OCCn2ccc3ccc(C(=O)NO)cc32)cc1` [Compound 325, N-hydroxy-1-(2-(4-(dimethylaminomethyl)phenoxy)ethyl)-1H-indole-6-carboxamide], the GI50 [1] is reported as 13.4 µM, the IC50 [3] is reported as greater than 10 µM and the IC50 [4] is reported as greater than 10 µM. For the same compound, the IC50 [5] was greater than 10 µM, the IC50 [6] was 1 to 10 µM and the IC50 [7] was less than 1 µM. The IC50 [8] was greater than 10 µM.

Work on `O=C(NO)c1ccc2ccn(CCOc3cccc(CN4CCOCC4)c3)c2c1` [Compound 327, N-hydroxy-1-(2-(3-(morpholin-4-ylmethyl)phenoxy)ethyl)-1H-indole-6-carboxamide] yielded a GI50 [1] of 4.95 µM, an IC50 [3] greater than 10 µM and an IC50 [4] greater than 10 µM. It also gave an IC50 [5] greater than 10 µM, an IC50 [6] of 1 to 10 µM and an IC50 [7] of less than 1 µM. The IC50 [8] was greater than 10 µM.

Work on `O=C(Cn1ccc2ccc(C(=O)NO)cc21)Nc1ccccc1` [Compound 329, N-hydroxy-1-(2-oxo-2-(phenylamino)ethyl)-1H-indole-6-carboxamide] yielded a GI50 [1] of 20.7 µM, an IC50 [3] greater than 10 µM and an IC50 [4] greater than 10 µM. For the same compound, the IC50 [5] was greater than 10 µM, the IC50 [6] was greater than 10 µM and the IC50 [7] was less than 1 µM. It also gave an IC50 [8] greater than 10 µM.
